Experiments:
22RV1 cells = experiment: Hoechst viability assay, 22RV1 prostate carcinoma cells; format: cell-based, human
Experimental: Cells (in quadruplicate) at the specified density were suspended in 200 μL medium supplemented with 10% FCS seeded in 96-well plates for 24 hours, then exposed to the drugs for 72 hours. The viability of the cells was determined by Hoechst fluorescent assay as described by Nudelman et al., 2005. Leukemic cell viability after 72 hours of treatment was determined by an MTT (3-(4,5-dimethylthiazol-2-yl)-2,5-diphenyltetrazolium bromide) assay as described by Levovich et al., 2007.
IC50 values were determined by linear regression of the percentage of survival following drug titration.

U-251 cells [1] = experiment: Mitochondrial membrane potential (JC-1 staining), U-251 cells; format: cell-based, human; details: 60 μM, 24 hour treatment
phospho-H2AX (Ser139) = experiment: Phospho-H2AX Western blot, U-251 cells; format: cell-based, human; details: 60 μM, 0.5, 2 or 24 hours, peak after 2 hours
Experimental: Cell lysates or acid extracted histones were solubilized in a concentrated (×4) loading buffer (62.5 mM Tris-HCl, pH 6.8, 1% SDS, 10% glycerol v/v, 1% dithiothreitol (DTT) and 0.1 mg/ml bromophenol blue). Proteins (10-40 μg) were run on SDS-PAGE, transferred to a nitrocellulose membrane (Schleicher & Schuell, Germany) and probed with the primary antibodies, followed by incubation with a horseradish peroxidase (HRP)-goat anti-rabbit IgG or HRP-rabbit anti-mouse IgG as secondary antibodies. HRP bound to the secondary antibodies was visualized by the enhanced chemiluminescence method using the Western Blotting Luminol reagent (Santa Cruz, Calif., USA). The membrane was exposed for 5 minutes to Chemiluminescence BioMax light film (Kodak, USA) and the intensity of the bands was measured with a VersaDoc instrument with a Quantityl program (Bio-Rad, USA). The fold increase of each specific protein was determined by the ratio of band intensities of treated and untreated cells, normalized to loading control (actin or total histone H3).

U-251 cells [2] = experiment: Cell cycle analysis (propidium iodide flow cytometry), U-251 cells; format: cell-based, human
Experimental: Cells (4×10^5) were seeded in 35 mm culture dishes and after 24 hours were starved in medium without serum for an additional 24 hours, and then treated with the drug for an additional 24 hours. The cells were then trypsinized to a single cell suspension in PBS, washed, and resuspended in PBS at a concentration of 10^6 cells/mL. The cells were fixed with 70% ethanol for 30 minutes at 4° C., centrifuged and resuspended in 1 ml PBS containing 0.1% Tween 20 and 0.05% bovine serum albumin (BSA). RNase free of DNase was added, and the cell suspension (10^6 cells) was incubated at […] for 30 minutes. The cell suspension was then chilled on ice to a temperature in the range of 2 to 8° C. Propidium iodide (50 μg/mL) was added to the cell suspension, which was than kept in the dark. Red fluorescence (>630 nm) was analyzed on the flow cytometer.

primary rat astrocytes = details: 50 μM, 24 hours
Experimental: Brains were removed from neonatal rats, and the cerebral cortex was dissected and minced. The cells were dissociated by vigorous shaking in DMEM supplemented with 20% FCS, and cells from 3 brains were seeded in 20 mL of the medium. After one week, the serum concentration was reduced to 10%.
Cells were seeded in six-well plates (10^5 cells/well) for 24 hours and were then treated as specified, trypsinized, washed with PBS, double-stained with annexin V-FITC (fluorescein isothiocyanate) and propidium iodide, according to the manufacturer's instructions and subjected to flow cytometry analysis (FACScalibur cytometer, Becton Dickinson).

[3] = Acute toxicity assay in mice; format: in vivo; details: male, mouse, in vivo; single per os dose, ICR mice
Description: (§1) Male ICR mice, 8 weeks old (Harlan, Israel) were acclimated for 10 days before administration of the tested compounds. The animals were monitored for two weeks and weighed three times per week.

ICR mice = experiment: Acute toxicity assay in mice; format: in vivo; details: 2 weeks
Description: as §1

[4] = system: 3LLD122 Lewis lung carcinoma; experiment: Metastatic Lewis lung carcinoma (3LL) model; format: in vivo, mice; details: Compound 6 30 mg/kg, Compound 7 25 mg/kg, per os thrice per week, 21 days; p<0.02 vs acyclovir
Experimental: Female C57/BL mice, 7-10 weeks old, were acclimated for ten days. All in vivo experiments were conducted according to the NIH Laboratory Animal Care Guidelines and in accordance with the guidelines and approval of the Tel Aviv University Committee for Animal Experimentation.
The subclone 3LLD122 of 3LL used in the study was selected for its aggressive and invasive nature. […] The animals were sacrificed after 21 days of treatment, their lungs were weighed, stained with Bouin's fixative and the metastatic lesions were scored double-blindly.

[5] = system: 4T1 murine breast carcinoma; experiment: Metastatic 4T1 breast carcinoma model; format: in vivo, mice; details: 25 mg/kg, 4T1 model, p<0.05
Experimental: The syngeneic murine breast carcinoma metastatic model was performed with 8-10 weeks old BALB-c mice implanted with 4T1 cells. When the tumor volume reached 75-180 mm^3 (after ˜10 days), treatment was initiated for an additional 21 days. At termination, the animals were sacrificed and their lungs removed, stained with Bouin's solution, and lung lesions were scored under an illuminated magnifying glass.

acetylated histone H4 = experiment: In vivo histone H4 acetylation in 4T1 tumors (Western blot); parameters: species or system mice; details: 100 mg/kg each, 4 hours after treatment, vs vehicle
Experimental: For the determination of in vitro histone acetylation, 2.5-3×10^6 cells, seeded in 100 mm culture dishes, were supplemented with RPMI medium containing 10% heat inactivated FCS and were treated with the drugs the following day. At the specified times post-treatment, the cells were removed with a rubber policeman, centrifuged, washed, lysed with lysis buffer (PBS, Nonidet® NP-40 1%, sodium deoxycholate 0.5%, sodium dodecyl sulfate (SDS) 0.1%, 1 mM phenylmethylsulfonyl fluoride (PMSF), 1 mM sodium orthovanadate, and 1 μM each of leupeptin and pepstatin) and centrifuged at 10,000 g for 10 minutes at 4° C. […] The extract was then lyophilized, and protein concentration was determined with a BCA kit (Pierce, USA). […] The fold increase of acetylated histones was determined by the ratio of band intensities of treated and untreated cells or mice, normalized to loading control (total histone H3).
Cell lysates or acid extracted histones were solubilized in a concentrated (×4) loading buffer (62.5 mM Tris-HCl, pH 6.8, 1% SDS, 10% glycerol v/v, 1% dithiothreitol (DTT) and 0.1 mg/ml bromophenol blue). […] The membrane was exposed for 5 minutes to Chemiluminescence BioMax light film (Kodak, USA) and the intensity of the bands was measured with a VersaDoc instrument with a Quantityl program (Bio-Rad, USA). […]

SMILES: CCCC(CCC)C(=O)Nc1nc2c(ncn2COCCOC(=O)C(CCC)CCC)c(=O)[nH]1 [Compound 6, N-valproyl-9-(2-valproyloxy)ethoxymethylguanine]
- activity relative to acyclovir (22RV1 cells): > 100 fold
- IC50 (22RV1 cells; Homo sapiens, 72 hours, Hoechst, read-out: IC50): 23.2 ± 1.9 µM
- mitochondrial membrane potential (U-251 cells [1]): increased the number of mitochondria with reduced membrane potentials
- level of phosphorylated H2AX (phospho-H2AX (Ser139)): induced an increase in the level of phosphorylated H2AX
- Percentage of cells in G0-G1 stage (U-251 cells [2]; 25 μM, 24 hours): 48.5%
- Percentage of cells in G2-M stage (U-251 cells [2]; 25 μM, 24 hours): 33.9%
- Percentage of cells in S stage (U-251 cells [2]; 25 μM, 24 hours): 17.5%
- Percentage of cells in G0-G1 stage (U-251 cells [2]; 50 μM, 24 hours): 77.1%
- Percentage of cells in G2-M stage (U-251 cells [2]; 50 μM, 24 hours): 13.3%
- Percentage of cells in S stage (U-251 cells [2]; 50 μM, 24 hours): 9.5%
- cell-cycle arresting concentration, fold lower than acyclovir and valproic acid (U-251 cells [2]; 25-50 μM vs 1 mM): at least 20 fold
- phase of cell-cycle arrest (U-251 cells [2]; 25-50 μM, 24 hours): G0-G1 phase
- viability of primary culture of astrocytes (primary rat astrocytes): did not affect the viability
- LD50 at 2 weeks [3]: > 750 mg/kg
- Survival (%) (ICR mice; single per os dose 150 mg/kg): 100%
- Survival (%) (ICR mice; single per os dose 200 mg/kg): 100%
- Survival (%) (ICR mice; single per os dose 250 mg/kg): 91.8%
- Survival (%) (ICR mice; single per os dose 500 mg/kg): 100%
- Survival (%) (ICR mice; single per os dose 750 mg/kg): 100%
- number of lung macro-lesions (anti-metastatic activity) [4]: significant anti-metastatic activity
- lung weight [5]: reduction in lung weight
- number of observed lung lesions [5]: reduction in the number of observed lung lesions
- levels of acetylated H4 in tumors (acetylated histone H4): significantly higher levels of acetylated H4

Source: patent publication US9334272B2, “Derivatives of purinic and pyrimidinic antiviral agents and use thereof as potent anticancer agents” (Ramot at Tel-Aviv University Ltd., priority 2007, dated 2016)
